From patent US9126999B2, “Tetrahydropyrazolopyrimidine compounds” (EISAI R&D MANAGEMENT CO., LTD., priority 2012, dated 2015)

Target: T1, Mouse TLR7 (Mus musculus, UniProt P58681)
T1 construct: endogenous in cells; host or cells: female BALB/c mice, in vivo
T1 sequence (P58681 27-1050): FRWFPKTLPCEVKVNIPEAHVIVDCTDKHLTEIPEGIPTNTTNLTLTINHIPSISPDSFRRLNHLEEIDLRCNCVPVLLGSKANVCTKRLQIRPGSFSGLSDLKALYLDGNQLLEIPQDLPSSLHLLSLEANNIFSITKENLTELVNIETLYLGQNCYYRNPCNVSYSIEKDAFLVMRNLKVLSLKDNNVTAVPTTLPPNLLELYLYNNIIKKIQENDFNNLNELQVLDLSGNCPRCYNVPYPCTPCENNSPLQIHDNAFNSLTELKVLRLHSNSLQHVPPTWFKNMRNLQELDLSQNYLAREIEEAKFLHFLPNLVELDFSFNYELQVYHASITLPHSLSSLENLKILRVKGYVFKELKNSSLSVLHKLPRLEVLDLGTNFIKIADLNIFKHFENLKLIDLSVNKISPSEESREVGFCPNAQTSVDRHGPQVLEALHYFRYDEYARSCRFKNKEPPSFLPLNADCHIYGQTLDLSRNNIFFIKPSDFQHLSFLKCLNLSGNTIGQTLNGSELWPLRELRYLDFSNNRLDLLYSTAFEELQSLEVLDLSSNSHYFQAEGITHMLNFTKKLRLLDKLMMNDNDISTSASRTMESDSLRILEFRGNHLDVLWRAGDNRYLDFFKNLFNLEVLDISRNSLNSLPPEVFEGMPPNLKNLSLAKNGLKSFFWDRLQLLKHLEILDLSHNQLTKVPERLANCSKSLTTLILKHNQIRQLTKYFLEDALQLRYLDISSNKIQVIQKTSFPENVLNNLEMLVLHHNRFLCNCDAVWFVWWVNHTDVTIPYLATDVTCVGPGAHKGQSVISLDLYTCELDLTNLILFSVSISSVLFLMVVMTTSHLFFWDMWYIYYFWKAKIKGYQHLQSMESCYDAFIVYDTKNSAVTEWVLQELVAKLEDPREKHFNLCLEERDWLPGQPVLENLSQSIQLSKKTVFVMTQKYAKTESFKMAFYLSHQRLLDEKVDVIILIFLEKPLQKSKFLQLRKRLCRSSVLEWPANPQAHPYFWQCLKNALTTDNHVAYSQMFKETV
Test: Short-term in vivo (STIV) assay: plasma IL-6 after s.c. R848
Experimental: Figure Legend: Female BALB/c mice were dosed by oral gavage with Vehicle alone (0.5% aqueous methyl-cellulose) or compound ER-892887 formulated in Vehicle at 100 mg/kg or 300 mg/kg. At 13 or 24 hours following oral dosing, mice were injected subcutaneously with 15 ug R848 to stimulate TLR7. Blood plasma was collected by cardiac puncture, and the IL-6 level at 1.5 hours after TLR7 stimulation was then assessed by standard ELISA procedure. Percent suppression indicated is relative to IL-6 induction following Vehicle control dosing. Statistical significance was determined by Mann-Whitney test.
To assess compound potency in vivo against mouse TLR7, a short-term in vivo (STIV) assay was utilized. Briefly, mice were orally dosed with compounds and at various time points afterwards were injected subcutaneously with agonist R848 to stimulate TLR7. The plasma IL-6 level following R848 stimulation was then measured by ELISA to assess compound potency and duration-of-action. […] Therefore, the activity of compounds in the STIV assay can be confidently attributed to their modulation of the TLR7 pathway. A single oral dose of ER-892887 at 300 mg/kg suppresses the R848/TLR7/IL-6 pathway in vivo by 80-90% for at least 24 hours (see FIG. 1).
Six to eight week old female BALB/c mice (Jackson Labs, Bar Harbor, Me.) were dosed by oral gavage in 200 ul volume with antagonist compounds formulated in 0.5% aqueous methyl-cellulose (Sigma, St. Louis, Mo.). At various time points afterwards, mice were injected subcutaneously (s.c.) in 100 ul volume with 15 ug R848 (Resiquimod; GLSynthesis, Worcester, Mass.) to stimulate TLR7. Blood plasma was collected by cardiac puncture, and levels of IL-6 at 1.5 hours after TLR7 stimulation were then assessed by standard ELISA procedure according to the manufacturer's recommended protocol (R&D Systems).

[1] = time point 6 hr, dose 33 mg/kg oral
[2] = time point 6 hr, dose 100 mg/kg oral
[3] = time point 13 hr, dose 33 mg/kg oral
[4] = time point 13 hr, dose 100 mg/kg oral

Row | SMILES | % Suppression vs. Vehicle (time point 19 hr, dose 100 mg/kg oral) [%] | % Suppression vs. Vehicle (time point 19 hr, dose 300 mg/kg oral) [%] | suppression of the R848/TLR7/IL-6 pathway in vivo (single oral dose 300 mg/kg) | duration of suppression of the R848/TLR7/IL-6 pathway in vivo (single oral dose 300 mg/kg, 80-90% suppression) | % Suppression vs. Vehicle [1] [%] | % Suppression vs. Vehicle [2] [%] | % Suppression vs. Vehicle (time point 13 hr, dose 11 mg/kg oral) [%] | % Suppression vs. Vehicle [3] [%] | % Suppression vs. Vehicle [4] [%] | % Suppression vs. Vehicle (time point 13 hr, dose 300 mg/kg oral) [%] | % Suppression vs. Vehicle (time point 24 hr, dose 33 mg/kg oral) [%] | % Suppression vs. Vehicle (time point 24 hr, dose 100 mg/kg oral) [%] | % Suppression vs. Vehicle (time point 24 hr, dose 300 mg/kg oral) [%]
1 | COc1ccc([C@@H]2C[C@H](C(F)(F)F)n3nc(-c4ccncc4)cc3N2)cc1OC [ER-885454] | 56 | 100 |  |  |  |  |  |  |  |  |  |  | 
2 | COc1ccc([C@@H]2C[C@H](C(F)(F)F)n3nc(-c4ccc(C(=O)N5CCNCC5)cc4)cc3N2)cc1OC [ER-892887, (4-((5S,7R)-5-(3,4-dimethoxyphenyl)-7-(trifluoromethyl)-4,5,6,7-tetrahydropyrazolo[1,5-a]pyrimidin-2-yl)phenyl)(piperazin-1-yl)methanone] |  |  | 80-90% | at least 24 hours | 83 | 100 | 27 | 12 | 49 | 90 | 0 | 12 | 86
3 | Cc1nn(C)cc1[C@@H]1C[C@H](C(F)(F)F)n2nc(-c3ccc(NC(N)=O)cc3)cc2N1 [ER-894595] |  |  |  |  | 0 | 57 |  | 0 | 0 |  |  |  | 
